Measurements: paper PMC11873639 (Acta Pharmaceutica Sinica. B, 2024)

Tests used:
[1] = test system: LAD2 cells; assay: β-hexosaminidase release induced by C48/80 in LAD2 cells; format: cell-based, Human; conditions: for IC50: Homo sapiens, LAD2, read-out: Experimental pIC50 (converted); for antiallergic activity (β-hexosaminidase release inhibition): LAD2 cells, 10 μmol/L
[2] = test system: LAD2 cells; assay: LAD2 cell viability; format: cell-based, Human; conditions: 10 μmol/L
[3] = test system: LAD2 cells; assay: histamine release in vitro induced by C48/80; format: cell-based, Human; conditions: 1 to 10 μmol/L
[4] = test system: LAD2 cells; assay: IL-8 release induced by C48/80; format: cell-based, Human; conditions: LAD2 cells, 1, 5 and 10 μmol/L
[5] = test system: mice; assay: paw swell and Evans blue extravasation induced by C48/80; format: in vivo; conditions: gavage, 1, 5 and 10 mg/kg
[6] = test system: mice; assay: serum histamine release in vivo after C48/80; conditions: mice, 1, 5 and 10 mg/kg
[7] = test system: mice; assay: skin toluidine blue staining; format: in vivo; conditions: 10 mg/kg, C48/80
[8] = test system: mice; assay: body temperature after C48/80; format: in vivo; conditions: 10 mg/kg
[9] = test system: C57BL/6 mice; assay: OVA-induced antigen-induced pulmonary inflammation; format: in vivo; conditions: AIPI mice
[10] = test system: MRGPRX2-HEK293 cells; assay: intracellular Ca2+ mobilization assay; format: cell-based; conditions: MRGPRX2-HEK293 cells, 1, 5, 10 μmol/L
[11] = biological target: T1, MRGPRX2 (Homo sapiens, UniProt Q96LB1); conditions: cited from earlier work
T1 sequence (Q96LB1 1-330): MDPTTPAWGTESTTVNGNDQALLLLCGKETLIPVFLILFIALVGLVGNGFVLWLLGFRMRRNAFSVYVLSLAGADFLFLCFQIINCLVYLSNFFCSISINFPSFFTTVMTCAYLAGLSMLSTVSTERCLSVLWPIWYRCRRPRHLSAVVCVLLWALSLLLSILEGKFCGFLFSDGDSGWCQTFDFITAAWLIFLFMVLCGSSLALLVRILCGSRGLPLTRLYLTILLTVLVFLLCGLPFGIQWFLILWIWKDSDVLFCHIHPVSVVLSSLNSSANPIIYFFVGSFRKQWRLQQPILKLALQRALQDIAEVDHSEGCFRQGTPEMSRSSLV

SMILES: O=C(Nc1ccccc1)Nc1cc(Br)cc(C(F)(F)F)c1 [Compound A-1023, 1-(3-bromo-5-(trifluoromethyl)phenyl)-3-phenylurea]
- IC50 [1]: 7.94 µM

SMILES: O=C(Nc1ccc(C(F)(F)F)cc1)Nc1cccc(Br)c1 [Compound A-2023, 1-(3-bromophenyl)-3-(4-(trifluoromethyl)phenyl) urea]
- IC50 [1]: 1.23 µM
- cytotoxicity on LAD2 cells [2]: much higher toxicity

SMILES: O=C(Nc1ccccc1)Nc1ccc(C(F)(F)F)cc1 [Compound A-3023]
- IC50 [1]: 8.32 µM
- antiallergic activity (β-hexosaminidase release inhibition) ([1]; C48/80): much more potent than A-4023
- cytotoxicity on LAD2 cells [2]: attenuated cytotoxicity

SMILES: O=C(Nc1ccccc1)Nc1cccc(C(F)(F)F)c1 [Compound A-4023]
- cytotoxicity on LAD2 cells [2]: attenuated cytotoxicity

SMILES: O=C(Nc1ccccc1)Nc1cccc(Br)c1 [Compound A-5023]
- IC50 [1]: 21.9 µM
- antiallergic activity (β-hexosaminidase release inhibition) ([1]; C48/80): no antiallergic activity
- cytotoxicity on LAD2 cells [2]: no antiallergic activity or cytotoxicity

SMILES: O=C(Nc1ccc([N+](=O)[O-])cc1)Nc1ccc(C(F)(F)F)cc1 [Compound B-1023]
- IC50 [1]: 0.17 µM
- inhibition of β-hexosaminidase release ([1]; LAD2 cells, 1, 5 and 10 μmol/L, C48/80): the most potential antiallergic ability
- cytotoxicity on LAD2 cells [2]: nontoxic
- histamine release from LAD2 cells induced by C48/80 [3]: inhibited the histamine release
- IL-8 release induced by C48/80 [4]: reduced the IL-8 release
- hindpaw swelling and Evans blue exudation rates [5]: decreased in a dose-dependent manner
- serum histamine release [6]: reduced in a dose-dependent manner
- local skin mast cell deformation and degranulation (toluidine blue) [7]: reduced mast cell deformation and degranulation
- body temperature drop induced by C48/80 [8]: significantly attenuated the body temperature drop
- Th2 cytokine (IL-5 and IL-13) release in BALF [9]: obviously inhibited
- airway hyperresponsiveness (AHR) triggered by Mch [9]: suppressed the AHR
- number of bronchoalveolar lavage fluid (BALF) cells [9]: inhibited
- lung lesions (HE, PAS, MASSON staining) ([9]; 5 mg/kg oral): exerted anti-AIPI effects
- lung lesions (HE, PAS, MASSON staining) ([9]; 10 mg/kg oral): significantly attenuated the pathological changes, with a better effect than that of Dex
- serum IgE release ([9]; 10 mg/kg oral): only partially weakened IgE release
- C48/80-induced intracellular calcium mobilization [10]: dose-dependently reduced

SMILES: O=C(Nc1ccc(C(F)(F)F)cc1)Nc1cccc([N+](=O)[O-])c1 [Compound B-2023]
- IC50 [1]: 0.363 µM

SMILES: O=C(Nc1ccc([N+](=O)[O-])cc1)Nc1cccc(C(F)(F)F)c1 [Compound B-3023]
- IC50 [1]: 0.832 µM

SMILES: O=C(Nc1cccc([N+](=O)[O-])c1)Nc1cccc(C(F)(F)F)c1 [Compound B-4023]
- IC50 [1]: 0.288 µM

SMILES: O=C(Nc1ccc(C(F)(F)F)cc1)Nc1ccc(S(=O)(=O)O)cc1 [Compound B-6023]
- antiallergic activity (β-hexosaminidase release inhibition) ([1]; C48/80): inactivity

SMILES: C[C@@H]1C[C@H]2[C@@H]3CCC4=CC(=O)C=C[C@]4(C)[C@@]3(F)[C@@H](O)C[C@]2(C)[C@@]1(O)C(=O)CO [Dexamethasone, reference compound]
- airway hyperresponsiveness (AHR) triggered by Mch [9]: suppressed the AHR
- lung lesions (HE, PAS, MASSON staining) ([9]; dose not given): improved lung lesions
- serum IgE release ([9]; dose not given): almost completely inhibited the excessive release of IgE

SMILES: CC(C)=CCOc1c2occc2cc2ccc(=O)oc12 [imperatorin]
- IC50 [11]: 50 µM

SMILES: C[C@H]1O[C@@H](O[C@H]2CC[C@@]3(C)[C@@H](CC[C@]4(C)[C@@H]3C=C[C@]35OC[C@@]6(CCC(C)(C)C[C@H]63)[C@@H](O)C[C@]54C)[C@]2(C)CO)[C@H](O)[C@@H](O[C@@H]2O[C@H](CO)[C@@H](O)[C@H](O)[C@H]2O)[C@H]1O [saikosaponin A]
- IC50 [11]: 640 µM
